This note sets out measurements from patent US11773063B1, “Pharmaceutically acceptable salts and compositions thereof” (priority 2022, dated 2023).

Counter-ions that a name gives are not always drawn. Like-named read-outs stand apart in the source and are kept apart here. A value given as a limit tells only on which side of the number the result lay.

Data set [1] in a line: Polymorph assessment, slurry maturation in 10 solvents between 5 and 50° C. In kind it is physicochemical. Further details: key to Observation at 50° C. / Observation at 5° C.: ✓ = solution; ✓/X = turbid solution; X = suspension. The following applies: for dissolution in 10 volumes of solvent: 10 solvents, 5-50° C., 24 hours. On the procedure:
DR-2186-45-01 (20 mg, PHO Pattern 1+Extra Peaks) was weighed into 10 HPLC vials. To this was added 10 volumes (200 μL) of solvent, a stirrer bar and the samples heated to 50° C. on a Polar Bear heat/cool block (400 RPM). After holding at 50° C. for 30 minutes and observation was made and the samples cooled to 5° C. where a further observation was made. All samples were than subjected to heat/cool cycles between 5 and 50° C. holding for 4 hours at each temperature for 24 hours.
A polymorph assessment was carried out in 10 different solvents using PHO Pattern 1+extra peaks as the input material, maturating a slurry of the salt between 5° C. and 50° C. for 24 hours. The results of the XRPD analysis of the samples can be seen in FIG. 118. The isolated solid was the same as the input material in all cases other than MeOH.
DR-2186-46-01 (20 mg, TAR Pattern 1) was weighed into 10 HPLC vials. To this was added 10 volumes (200 μL) of solvent, a stirrer bar and the samples heated to 50° C. on a Polar Bear heat/cool block (400 RPM). After holding at 50° C. for 30 minutes and observation was made and the samples cooled to 5° C. where a further observation was made. All samples were than subjected to heat/cool cycles between 5 and 50° C. holding for 4 hours at each temperature for 24 hours.
A polymorph assessment was carried out in 10 different solvents, maturating a slurry of the salt between 5° C. and 50° C. for 24 hours.

A short description of data set [2]: Dynamic Vapor Sorption (DVS), salt screen and scale-up salts. In kind it is physicochemical. The conditions noted are these: for hygroscopicity class: 25° C. On the procedure: Dynamic Vapor Sorption (DVS)
DVS analyses were performed on TA Instrument DVS Q5000. Samples were added to a pre-tared metallised quartz crucible and run at 25° C. from 40% RH to 90% RH, down to zero and back to 40%. This cycle was repeated in increments of 10% RH.

The format of data set [3] is physicochemical. The conditions noted are these: 40° C./75% RH, three days. As to the method:
Physical Stability of Salts
Physical stability stress tests were conducted on generated crystalline salts at controlled temperature and relative humidity. The powder samples were stored at 40° C./75% RH for three days. After this time samples were analysed by XRPD to see whether the physical state of salts changed during the storage.

Data set [4] can be described thus: Storage at 40° C./75% RH for 1 week, XRPD (salts produced during scale-up). In kind it is physicochemical. The following applies: salt produced during scale-up. As to the method: Oxalate Salt HPLC Purity, DVS, Stability at 40° C./75% RH (XRPD and HPLC), PSD/Morphology Assessment
The nature of data set [5]: Solubility assessment in four different media. The class given is physicochemical. The conditions noted are these: for solubility: 37 °C, aqueous buffer, thermodynamic from solid, four different media; for pH after addition of 1.0 ml media at 37° C. / Observation: 250 mg per vial; for Observation: 1.0 ml media at 37° C. As to the method: Solubility assessments of 5-MeO-DMT oxalate, hydrobromide fumarate and benzoate were performed in four different media: […]

A short description of data set [6]: Thermo-Gravimetric Analysis (TGA), thermal stability. The conditions noted are these: for thermal stability up to (TGA): nitrogen. As to the method: Thermo—Gravimetric Analysis (TGA)
TGA thermograms were obtained with a TA Instrument Discovery 550 in Al pans. The heating rate used was 10° C./min linear ramp from 25 to 400° C. with a nitrogen purging at a rate of 60 ml/min. TGA thermograms were analysed using TRIOS software.

Data set [7] is described as follows: Dissolution in hot MeOH (phosphate re-crystallisation). The class given is physicochemical. Further details: key to Observation (sample dissolution in hot MeOH): ✓ = solution; ✓/X = turbid solution; X = suspension.
A short description of data set [8]: Storage at 40° C./75% RH and 25° C./97% RH for 7 days, XRPD and HPLC (Example 3). The class given is physicochemical. As to the method:
FIG. 128. XRPD diffractogram overlay of 5-MeO-DMT Phosphate Pattern 1 before and after storage at 25° C./97% RH and 40° C./75% RH for 7 days.
FIG. 139. XRPD diffractogram overlay of 5-MeO-DMT Tartrate Pattern 1 before and after storage at 25° C./97% RH and 40° C./75% RH for 7 days.
The sample is classed as slightly hygroscopic with a total reversible mass change of 0.3 wt. % between 0-90% RH. The DVS isotherm and DVS kinetic plot can be seen in FIGS. 124 and 125, respectively. The solid form was unchanged after a double-cycle experiment, the XRPD analysis confirming this can be seen in FIG. 126.
The sample is classed as slightly hygroscopic with a total reversible mass change of 0.6 wt. % between 0-90% RH (FIG. 135). The solid-form was unchanged after the double-cycle experiment (FIG. 136).

Data set [9] can be described thus: DVS double-cycle experiment (Example 3). In kind it is physicochemical.
Data set [10] in a line: Oxalate salt solubility by HPLC. The following applies: for solubility: thermodynamic from solid, by HPLC, mother liquors adjusted to the desired pH, read-out: Solubility (mg/ml) of free base. The class given is physicochemical. As to the method: The calibration curve of the free base was prepared between 0.031-0.500 mg/ml and can be seen in FIG. 172.
Oxalate Salt Solubility by HPLC
Mother liquors were adjusted to the desired pH before HPLC quantification.

[11] abbreviates: 5-MeO-DMT phosphate, input DR-2186-45-01 (PHO Pattern 1+Extra Peaks), 20 mg in 10 volumes, solvent per sample: -01 MeOH, -02 Acetone, -03 CAN, -04 IPA:Water 9:1, -05 2-MeTHF, -06 EtOAc, -07 Ethanol, -08 Toluene, -09 MEK, -10 TBME.

Consider `COc1ccc2[nH]cc(CCN(C)C)c2c1.O=P(O)(O)O` [DR-2186-52-02], for which, in data set [1] (setting [11]), the “Observation at 5° C.” value is reported as “X” and the “Observation at 50° C.” value was “X”.

For `Br.COc1ccc2[nH]cc(CCN(C)C)c2c1` [Hydrobromide salt, 5-MeO-DMT hydrobromide], in data set [2], the “change of crystalline form during the DVS experiment (DVS / post-DVS XRPD)” value (“change … (DVS / post-DVS XRPD)” for short) is recorded as “no change in crystalline form”. Further, the hygroscopicity class entry in data set [2] (DVS) is given as “non-hygroscopic”. Moreover, the results for the “crystalline form after storage (XRPD)” value in data set [3] and in [4] were “No change in crystalline form” and “no change in crystalline form”, respectively. Moreover, the “solubility compared to other salts” value in data set [5] is listed as “high solubility”. The solubility in [5] was at least 250 mg/mL. Besides, the “pH after addition of 1.0 ml media at 37° C.” value came to 8.13 in data set [5] (SNF), 8.09 in data set [5] (pH 1.2 buffer), 7.65 in data set [5] (pH 4.5 buffer) and 7.82 in [5] (pH 6.8 buffer). For the same compound, the Observation entry in data set [5] (SNF), in data set [5] (pH 1.2 buffer), in [5] (pH 4.5 buffer) and in data set [5] (pH 6.8 buffer) was “Clear solution” in each case. For the same compound, the “thermal stability up to (TGA)” value in data set [6] (10° C./min) was 220 °C. Also, the “temperature with 95% of weight remaining (TGA)” value in [6] (Ramp 10° C./min to 400° C., salt produced during scale-up) came to 269 °C.

With `COc1ccc2[nH]cc(CCN(C)C)c2c1` [DR-2186-45-01, 5-MeO-DMT phosphate], the “Observation (sample dissolution in hot MeOH)” value is “X” in data set [7] (5 volumes of MeOH, 50° C., 1.00 g PHO Pattern 1+extra peaks); “X” in data set [7] (8 volumes of MeOH, 50° C.); “X” in data set [7] (12 volumes of MeOH, 50° C.); “X” in data set [7] (16 volumes of MeOH, 50° C.); “X” in [7] (18 volumes of MeOH, 50° C.); “X” in data set [7] (18 volumes of MeOH, 60° C.). For the same compound, the “Observation (sample dissolution in hot MeOH)” value in data set [7] (20 volumes of MeOH, 60° C., 150 RPM, Easymax vessel overhead stirring) was “X”; in data set [7] (20 volumes of MeOH, 60° C., scintillation vial), “X”; in data set [7] (22 volumes of MeOH, 60° C., Easymax vessel overhead stirring), “X”; in data set [7] (24 volumes of MeOH, 60° C., Easymax vessel overhead stirring), “✓/X”; in data set [7] (25 volumes of MeOH, 60° C., 250 RPM, Easymax vessel overhead stirring), “✓”. The “volumes of MeOH at which dissolution was achieved” value in data set [7] (MeOH at 60° C., 1.00 g) came to 25 volumes. Moreover, the “dissolution in 10 volumes of solvent” value in data set [1] (listed as PHO Pattern 1+Extra Peaks) is “Non of the samples completely dissolved”.

`COc1ccc2[nH]cc(CCN(C)C)c2c1` [Tartrate Pattern 1, 5-MeO-DMT tartrate]: the “change by XRPD or HPLC after storage” value in data set [8] (25° C./97% RH) is “no change”. For the same compound, in data set [8] (40° C./75% RH), the “Static Storage 7 days - 40° C./75% RH, XRPD” value is listed as “KRPD-TAR Pattern 1” and the “change by XRPD or HPLC after storage” value is “no change”. In data set [8] (40° C./75% RH, HPLC purity), the “Static Storage 7 days - 40° C./75% RH, HPLC” value is reported as “HPLC-97.8%”. Also, in [6], the “TGA mass loss before decomposition” value was “No mass loss observed in sample before”. Besides, in data set [6] (10° C./min), the “start of decomposition / complete mass loss (TGA)” value was determined as 175 °C. The “solid form after double-cycle DVS experiment (XRPD)” value in data set [9] was “unchanged”. Besides, in data set [9] (DVS), the “total reversible mass change between 0-90% RH” value was 0.6 wt. %. Moreover, the hygroscopicity class result in [9] (DVS 0-90% RH, Example 3) is “slightly hygroscopic (Pharmaceuticals that pick up between 0.2% and 2.0% moisture at 80% RH are considered slightly hygroscopic)”. In [9] (from 0-90% RH), the “GVS total mass change as mol eq. water” value was “RH (0.12 mol eq. of water) and is reversible with mol eq. water”. In addition, the “GVS total mass change” value in data set [9] (from 0-90% RH, double cycle) is listed as “Total mass change of 0.58 wt. % from 0-90%”. Further, in data set [9] (post GVS), the “Solid form of the material after GVS by XRPD” value was “unchanged by XRPD”. Further, the “dissolution in 10 volumes of solvent” value in [1] is “No dissolution was observed”.

With `COc1ccc2[nH]cc(CCN(C)C)c2c1` [Fumarate salt, 5-MeO-DMT fumarate], in data set [2], the “change … (DVS / post-DVS XRPD)” value was “a change in crystalline form occurred”. Besides, in data set [2] (DVS, salt produced during scale-up), the “mass difference between 40% RH and 0% RH” value is recorded as about 2.84%. In addition, the “crystalline form after storage (XRPD)” value is “some additional peaks were also observed” in data set [3]; “mixture of form/pattern 1 and form/pattern 2” in data set [4]. The “pH after addition of 1.0 ml media at 37° C.” value came out at 5.14 in [5] (SNF), 5.24 in [5] (pH 1.2 buffer), 5.31 in data set [5] (pH 4.5 buffer) and 5.79 in data set [5] (pH 6.8 buffer). In addition, the Observation entry in data set [5] (SNF), in data set [5] (pH 1.2 buffer), in data set [5] (pH 4.5 buffer) and in [5] (pH 6.8 buffer) was “Clear solution” in each case. This compound gave a solubility in [5] (four media: SNF, pH 1.2, pH 4.5 and pH 6.8 media) of at least 250 mg/mL. Also, the “thermal stability up to (TGA)” value in data set [6] (10° C./min) is 150 °C.

For the compound `COc1ccc2[nH]cc(CCN(C)C)c2c1` [Oxalate salt, 5-MeO-DMT oxalate], the “change … (DVS / post-DVS XRPD)” value in data set [2] is recorded as “no change in the crystalline form”. In [4], the “crystalline form after storage (XRPD)” value is “no change in crystalline form”. The “form of isolated solids after solubility experiment (XRPD)” value in [10] was “no change in form”. Also, the solubility was 20.2 mg/mL in data set [10] (fassgf or other biorelevant, SNF); 35.5 mg/mL in data set [10] (pH 4.5 medium, aqueous buffer, pH 4.5); 26.9 mg/mL in data set [10] (pH 6.8 medium, aqueous buffer, pH 6.8).

On to `COc1ccc2[nH]cc(CCN(C)C)c2c1` [Tartrate salt, 5-MeO-DMT tartrate], for which, in data set [2], the “change … (DVS / post-DVS XRPD)” value is “did not undergo any solid form transformation”. Moreover, the hygroscopicity class entry in [2] (DVS) was “moderately hygroscopic (Pharmaceuticals that pick up between 2.0% and 15.0% moisture at 80% RH are considered moderately hygroscopic)”; in data set [2] (DVS, listed as tartrate salt) it was “moderately hygroscopic (Pharmaceuticals that pick up between 2.0% and 15.0% moisture at 80% RH are considered moderately hygroscopic)”. Besides, the “crystalline form after storage (XRPD)” value in data set [3] is given as “No change in the crystalline form”. Further, the “thermal stability up to (TGA)” value in data set [6] (10° C./min) is “around 170 °C”.
